Experiment [1] concerns LKB1/AMPK and AKT signaling pathways in human hepatoma HepG2 cells. The experiment is described as follows: Zinc activation of LKB1/AMPK and AKT signaling in HepG2 cells (immunoblot). It counts as cell-based. Particulars: acute, FIG. 12A. The method, then: (§1) FIGS. 12A-12B. […] 1° Hu Hepatocytes* (5-donor pool): HM CPP5, Thermofisher.
(§2) Liver protein was extracted using RIPA buffer (Cell signaling technology, Cat #9806) with Halt Protease & Phosphatase Inhibitor Cocktail (ThermoFisher Scientific, Cat #78440). Five microgram protein of each sample were separated in NuPAGE 4-12% Bis-Tris protein gel (Invitrogen, Cat # WG1403BOX), and transferred to nitrocellulose membrane using Trans-Blot® Turbo™ Transfer System (BioRad). Blotting was performed using the following Cell Signaling Technology antibodies: Phospho-AMPKa (Thr172) (Cell signaling technology, Cat #2535), AMPKa (Cell signaling technology, Cat #5831), 13-Actin (Sigma, Cat #5441), Phospho-AKT (Ser473) (Cell signaling technology, Cat #4060), AKT (Cell signaling technology, Cat #9272), Phospho-LKB1 (Ser428) (Cell signaling technology, Cat #3482), LKB1 (Cell signaling technology, Cat #3050), rabbit IgG conjugated to horseradish peroxidase (HRP) (Cell signaling technology, Cat #7074) and mouse IgG conjugated to HRP (Cell signaling technology, Cat #7076). Blots were developed using SuperSignal West Femto Substrate (ThermoFisher Scientific, Cat #34095). Signals were captured using ImageQuant LAS4000 (GE Healthcare).
A general note: Immunoblotting shows a protein as a band on a membrane.

For experiment [2], the system named is LKB1/AMPK and AKT signaling pathways in human primary hepatocytes. The experiment is described as follows: Zinc activation of LKB1/AMPK and AKT signaling in human primary hepatocytes (immunoblot). In kind it is cell-based. Conditions: human primary hepatocytes (5-donor pool, HM CPP5, Thermofisher); acute; FIG. 12B. The method, then: as §1, §2

Molecules are shown by their SMILES.

In the case of `[Zn]` [Zinc], the “activation of LKB1/AMPK and AKT signaling pathways” value is “activates LKB1/AMPK and AKT signaling pathways in dose dependent manner” in experiment [1]; “activates LKB1/AMPK and AKT signaling pathways in dose dependent manner” in experiment [2].

Source of the values: patent US20200288683A1, “LOSS OF FUNCTION RODENT MODEL OF SOLUTE CARRIER 39 MEMBER 5” (Regeneron Pharmaceuticals, Inc., priority 2019, published 2020).
